Values joined by “and” are separate entries in the source; they are usually repeats but may differ in a detail not shown here. Equal values may be shown once. Blank lines part the entries; values can stand above or below the molecule they belong to. Non-standard residues stand in square brackets, D forms with d. TAMRA = tetramethylrhodamine label; pS = N[C@@H](COP(=O)(O)O)C(=O)O
What was measured:
[1] = target: T1, BRCA1 tBRCT (Homo sapiens, UniProt P38398); assay: AlphaScreen assay: displacement of cognate biotinylated phosphopeptide from BRCA1 tBRCT; details: 10-point dose response, read-out: IC50, inhibition of binding of cognate phosphopeptide to BRCA1 tBRCT
T1 construct: BRCA1 tBRCT residues 1646-1859; made in house; host or cells: E. coli BL21(DE3)
T1 sequence (P38398 1646-1859): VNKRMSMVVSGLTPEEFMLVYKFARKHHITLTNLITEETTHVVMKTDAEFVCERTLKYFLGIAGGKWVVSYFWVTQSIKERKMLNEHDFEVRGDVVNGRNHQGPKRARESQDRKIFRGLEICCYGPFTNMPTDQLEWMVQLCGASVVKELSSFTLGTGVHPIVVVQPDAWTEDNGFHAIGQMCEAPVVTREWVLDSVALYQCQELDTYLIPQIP
Procedure: We tested 6x-Histidine-tagged BRCA1 tBRCT, TOPBP1 tBRCT 7/8 or GRB2 SH2, and their cognate biotinylated peptide substrates. Initial checkerboard titrations were carried out to determine the optimal concentration of protein and peptide for each screen. Assays were conducted in Costar 96-well flat bottom white polystyrene plates using assay buffer (20mM Tris buffer pH 7.4, 200mM NaCl, 0.05% Tween-20, 2mM DTT). 5x-working concentrations of the reagents were dispensed in 10μl each in the order: 6x-Histidine tagged protein, biotinylated peptide, test compound. Plates were incubated at room temperature for 20 min and 10 μl each of nickel chelate AlphaLISA® acceptor beads and AlphaScreen® Streptavidin donor beads (both from Perkin Elmer) at a final concentration of 20 μg/ml were added. Plates were covered with adhesive seals and incubated in the dark for 1 h at 25°C. The AlphaScreen® signal was read using TECAN infinite M1000 Pro microplate reader at excitation wavelength 680nm and emission wavelength 520-620nm. 1% DMSO controls were run in parallel, and used to calculate percent inhibition. A 10-point dose response was performed in triplicate to determine IC50 values for each compound.

[2] = Solubility in aqueous buffers; format: physicochemical
[3] = target: T1, BRCA1 tBRCT; assay: Competitive MST: inhibition of BACH1 phosphopeptide binding to BRCA1 tBRCT; details: for activity in competitive MST, in words / IC50: BACH1 phosphopeptide vs BRCA1 tBRCT; for IC50: MST, mean ± SD of three experiments, NB, no binding
Procedure: Protein domains used in the assay were labeled with NT-647-NHS fluorescent dye using the Monolith NT™ Protein Labeling Kit (NanoTemper Technologies). Assays were carried out in 20mM Tris buffer, pH 7.4, with 200mM NaCl, 0.05% Tween-20 and 2mM DTT. For the direct binding assay, 10μl of labeled protein at a final concentration of 20nM was mixed with 10μl of test compound and incubated on ice for 10 min. For the competitive assay, 10μl of labeled protein at a final concentration of 20nM was mixed with 2μM cognate peptide substrate at the EC80 concentration determined by prior titration using a 16-point serial dilution by direct-binding MST. For both assays, samples prepared as above were centrifuged at 15000 rpm at 4°C for 10 min and 4μl of the supernatant was loaded into premium glass capillaries (NanoTemper Technologies). MST analysis was performed at MST power of 40% and LED power of 80%, at 22°C temperature using a Monolith NT.115 (NanoTemper Technologies). An initial “Capillary Scan” was performed to scan for fluorescence across the length of the capillary tray to determine the exact position of each capillary before the MST measurement was started. Test compounds were assayed at 16 different concentrations by serial dilution, and data were analysed using NanoTemper analysis software. Kd values were determined using “T-jump + Thermophoresis” settings. The change in thermophoresis between different experimental conditions was expressed as the change in the normalized fluorescence (ΔFnorm), which is defined as Fhot/Fcold (F-values correspond to average fluorescence values between defined areas in the curve under steady-state conditions under control (Fcold) or experimental (Fhot) conditions. Titration of the non-fluorescent ligand causes a gradual change in thermophoresis, which is plotted as ΔFnorm to yield a binding curve, which was then fitted to derive binding constants.

[4] = system: BRCT domain of poly-ADP ribose polymerase; design: method as in Na et al., 2015; details: ref Na et al., 2015; cited from earlier work
[5] = target: T2, human BRCA1 tandem BRCT domain (residues 1646-1859) (human, UniProt P38398-1 1646-1859, NT-647-NHS fluorescent dye (in the MST assays only)); assay: fluorescence polarisation; 75 nM BRCA1 tBRCT and 10 nM TAMRA-labelled BACH1 peptide, with compound at 125 uM; 20 mM Tris pH 7.4, 200 mM NaCl, 0.05% Tween-20, 2 mM DTT; room temperature; details: both partners purified
T2 construct: BRCA1, human, tandem BRCT domain, residues 1646-1859; Synthetic gene in pET28a, codon optimised for E. coli; No removal of the His tag is described; also called BRCA1 tBRCT; 6x His-BRCA1 tBRCT; source: E. coli BL21(DE3), purified (HisTrap HP, Superdex-75 gel filtration); not shown: His6, N-terminal, kept
T2 sequence (P38398 1646-1859): as above

Molecule: CC(C)CN1CCN(C(=O)c2ccc3[nH]c(-c4ccccc4)nc3c2)CC1 [CCBT2047, (4-isobutylpiperazin-1-yl)(2-phenyl-1H-benzo[d]imidazol-5-yl) methanone]
activity in competitive MST, in words [3]: abolishes activity

Molecule: O=C(c1ccc2[nH]c(N3CCOCC3)nc2c1)N1CCN(Cc2ccccc2F)CC1 [CCBT2084, (4-(2-fluorobenzyl)piperazin-1-yl)(2-morpholino-1H-benzo[d]imidazol-5-yl) methanone]
activity in competitive MST, in words [3]: abrogated activity

Molecule: O=C(c1ccc2nc(-c3ccccc3)[nH]c2c1)N1CCN(Cc2ccc(O)cc2)CC1 [CCBT2106, (4-(4-hydroxybenzyl)piperazin-1-yl)(2-phenyl-1H-benzo[d]imidazole-6-yl)methanone]
IC50 [3]: 3.6 µM

Molecule: Cc1ccc(CN2CCN(C(=O)c3ccc4nc(-c5ccccc5)[nH]c4c3)CC2)cc1 [CCBT2107, (4-(4-methylbenzyl)piperazin-1-yl)(2-phenyl-1H-benzo[d]imidazol-6-yl)methanone]
IC50 [3]: 0.3 µM

Molecule: Cc1nc2cc(C(=O)N3CCN(Cc4ccccc4F)C[C@H]3C(C)C)ccc2[nH]1 [CCBT2905, (R)-(4-(2-fluorobenzyl)-2-isopropylpiperazin-1-yl)(2-methyl-1H-benzo[d]imidazol-5-yl)methanone]
IC50 [3]: 56 µM

Molecule: Cc1cc2c(C(C)C)c(O)c(O)c(C=O)c2c(O)c1-c1c(C)cc2c(C(C)C)c(O)c(O)c(C=O)c2c1O [Gossypol]
binding to the BRCT domain of poly-ADP ribose polymerase [4]: reported to bind

Other lines, results leading:

IC50 [1]: 47.3 µM | solubility in aqueous buffers [2]: limited solubility
Molecule: Cc1nc2cc(C(=O)N3CCN(Cc4ccccc4F)CC3C(C)C)ccc2[nH]1 (stereo not drawn) [CCBT002, (4-(2-fluorobenzyl)-2-isopropylpiperazin-1-yl) (2-methyl-1H-benzo[d]imidazol-5-yl)methanone]

activity in competitive MST, in words [3]: abrogated activity
Molecule: CC(C)c1nc2ccc(C(=O)N3CCN(Cc4ccccc4F)CC3)cc2[nH]1 [CCBT2009, (4-(2-fluorobenzyl)piperazin-1-yl) (2-isopropyl-1H-benzo[d]imidazol-6-yl) methanone]

IC50 [3]: 0.315 ± 0.18 µM | decrease in activity relative to Bractoppin ([3]; competitive MST): 5 fold
Molecule: O=C(c1ccc2[nH]c(-c3ccncc3)nc2c1)N1CCN(Cc2ccccc2F)CC1 [CCBT2082, (4-(2-fluorobenzyl)piperazin-1-yl)(2-(pyridin-4-yl)-1H-benzo[d]imidazol-5-yl)methanone]

IC50 [3]: 1.7 µM
Molecule: Cc1nc2cc(C(=O)N3CCN(Cc4ccccc4F)C[C@@H]3C(C)C)ccc2[nH]1 [CCBT2906]

IC50 [3]: > 53 µM and ~53 µM
Molecule: Cc1nc2cc(C(=O)N3CCN(Cc4ccccc4F)CC3)ccc2[nH]1 [CCBT2907, (4-(2-fluorobenzyl)piperazin-1-yl)(2-methyl-1H-benzo[d]imidazol-5-yl)methanone]

activity in competitive MST, in words [3]: inactive
Molecule: Cc1nc2cc(CN3CCN(Cc4ccccc4F)CC3)ccc2[nH]1 [CCBT2908, 5-((4-(2-fluorobenzyl)piperazin-1-yl)methyl)-2-methyl-1H-benzo[d]imidazole]

binding result [5]: binds
B1: TAMRA-labelled phosphopeptide from BACH1 (TAMRA_GGSRSTpSPTFNK-NH2) (peptide)
peptide: {TAMRA}-GGSRST[pS]PTFNK-NH2
notes: two added glycines before the BACH1 stretch; stretch around the Ser990 phosphosite; the helicase BRIP1 is meant; also called TAMRA-labeled BACH1 peptide; source: synthetic peptide, bought: Designer Bioscience

From paper PMC6015222, “Targeting Phosphopeptide Recognition by the Human BRCA1 Tandem BRCT Domain to Interrupt BRCA1-Dependent Signaling” (Cell Chemical Biology, 2018)
